Laboratory results from PMC5319980, “Mutant Analysis Reveals Allosteric Regulation of ClpB Disaggregase” (Frontiers in Molecular Biosciences, 2017).
pKd: −log10 of the molar value. Blank lines part the entries; values can stand above or below the compound they belong to.

Key:
[1] = molecular target: T1, ClpB (Escherichia coli, UniProt P63284); experiment: biochemical; set-up: competition titration of nucleotide against preformed ClpB-mantADP complex, mantADP fluorescence; conditions: competition with 1.25 uM mantADP; read-out: Knuc (WT)
T1 construct: ClpB wild type
Experimental: with F: observed fluorescence; F0: starting fluorescence without nucleotide; F1: maximum fluorescence observed; [ATP]: concentration of ADP/ATPγS (μM); Ki,app: apparent dissociation constant. with Ki,app: apparent dissociation constant; Ki: dissociation constant; [mantADP]: mantADP concentration (μM); Kd (mantADP): dissociation constant of mantADP. […] ClpB WT and mutants were incubated for 5 min at 25°C in presence of 2 mM ATPγS. Crosslinking reactions were started by addition of glutaraldehyde and proceeded for 2 and 10 min. Crosslinking products were separated by SDS-PAGE, followed by Sypro-Ruby staining. Supplementary Figure 2 Nucleotide binding properties of ClpB wild type. (A)1,5 µM mantADP was incubated with increasing concentrations of ClpB wild type and derivatives and the increase in mantADP fluorescence was determined. The fluorescence intensity of mantADP in absence of ClpB proteins was set at 1. Determined dissociation constants (Kd) are given. (B) Increasing nucleotide concentrations (ADP, ATPγS) were added to a preformed ClpB-mantADP complex (1,25 µM MANTADP, 1,25 µM ClpB WT or derivatives). Determined dissociation constants (Kd) are given.

[2] = molecular target: T1, ClpB; experiment: NADH-coupled ATPase assay with purified ClpB, without and with casein; type: biochemical
[3] = molecular target: ClpB (Escherichia coli, UniProt P63284, K476C); experiment: equilibrium fluorescence titration of mantADP with ClpB; type: binding
[4] = molecular target: ClpB (Escherichia coli, UniProt P63284, A328V); experiment: as above; type: binding
[5] = molecular target: T1, ClpB; experiment: as above; type: binding

T1 sequence (P63284 whole entry): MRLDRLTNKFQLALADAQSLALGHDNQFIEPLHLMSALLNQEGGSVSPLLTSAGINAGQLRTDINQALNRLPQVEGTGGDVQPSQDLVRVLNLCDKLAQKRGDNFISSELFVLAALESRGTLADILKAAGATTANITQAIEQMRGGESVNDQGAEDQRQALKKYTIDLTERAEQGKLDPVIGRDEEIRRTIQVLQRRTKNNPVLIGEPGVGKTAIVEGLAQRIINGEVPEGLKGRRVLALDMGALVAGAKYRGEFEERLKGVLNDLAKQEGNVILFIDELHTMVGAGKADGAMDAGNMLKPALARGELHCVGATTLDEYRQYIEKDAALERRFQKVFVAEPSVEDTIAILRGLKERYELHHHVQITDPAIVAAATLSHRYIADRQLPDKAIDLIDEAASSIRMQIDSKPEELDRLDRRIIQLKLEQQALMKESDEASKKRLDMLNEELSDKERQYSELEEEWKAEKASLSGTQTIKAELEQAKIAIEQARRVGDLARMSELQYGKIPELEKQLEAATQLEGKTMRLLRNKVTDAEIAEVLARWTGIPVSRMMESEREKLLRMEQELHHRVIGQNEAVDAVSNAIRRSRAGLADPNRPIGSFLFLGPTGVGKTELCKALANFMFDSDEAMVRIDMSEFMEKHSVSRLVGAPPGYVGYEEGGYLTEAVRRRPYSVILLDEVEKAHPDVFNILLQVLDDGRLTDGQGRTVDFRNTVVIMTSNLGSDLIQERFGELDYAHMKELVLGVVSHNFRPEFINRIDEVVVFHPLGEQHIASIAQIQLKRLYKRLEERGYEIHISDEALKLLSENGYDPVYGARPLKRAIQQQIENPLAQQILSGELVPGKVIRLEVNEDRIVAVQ
Chain of ClpB (Escherichia coli, UniProt P63284, A328V) (P63284 whole entry A328V): as the sequence (P63284 whole entry) above, with A328V counted along it
Chain of ClpB (Escherichia coli, UniProt P63284, K476C) (P63284 whole entry K476C, looked up): as the sequence (P63284 whole entry) above, with K476C counted along it

pKd [1]: 5.12
Compound: Nc1ncnc2c1ncn2[C@@H]1O[C@H](COP(=O)(O)OP(=O)(O)O)[C@@H](O)[C@H]1O [ADP]

Compound: Nc1ncnc2c1ncn2[C@@H]1O[C@H](COP(=O)(O)OP(=O)(O)OP(=O)(O)O)[C@@H](O)[C@H]1O [ATP]
NADH-coupled ATPase assay with purified ClpB, without and with casein [2]: ATPase activities of ClpB wild type (WT) and indicated ClpB mutants were determined in absence (−) and presence (+)

pKd [1]: 5.09
Compound: Nc1ncnc2c1ncn2[C@@H]1O[C@H](CO[P@](=O)(O)O[P@](=O)(O)O[P@@](=O)(O)S)[C@@H](O)[C@H]1O [ATPγS]

Compound: mantADP
pKd [3]: 6.60
pKd [4]: 6.29
pKd [5]: 6.64
